# Test results published in PubChem BioAssay AID588662 (The Scripps Research Institute Molecular Screening Center, 2011).
# Active and inactive are the calls of the source.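 How the source made its calls: active means p38 protein level shifted at least 30% from solvent-only control, either down or up; inactive means shift under 30% either way.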
# Target: Mitogen-activated protein kinase 14 (Homo sapiens) (UniProt Q16539)
# Test: total p38 protein level change, either direction, late-stage follow-up, counter-screen for KLF5 inhibitor project, SW620 cells, chemiluminescent western blot, powder samples (AID 588662)
# Details: 24 h, at 10 µM
# Sequence of Mitogen-activated protein kinase 14 (Homo sapiens) (Q16539 whole entry, looked up): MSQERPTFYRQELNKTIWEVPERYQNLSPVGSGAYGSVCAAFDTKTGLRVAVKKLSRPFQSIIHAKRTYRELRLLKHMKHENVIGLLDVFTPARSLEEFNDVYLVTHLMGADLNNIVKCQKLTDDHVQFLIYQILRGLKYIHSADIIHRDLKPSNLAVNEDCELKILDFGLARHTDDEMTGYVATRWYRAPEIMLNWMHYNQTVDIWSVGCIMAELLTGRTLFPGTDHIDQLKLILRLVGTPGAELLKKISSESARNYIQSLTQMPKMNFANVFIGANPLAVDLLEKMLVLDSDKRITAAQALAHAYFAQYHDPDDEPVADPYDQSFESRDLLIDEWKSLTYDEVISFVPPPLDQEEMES
row,inhibition,SMILES
1,-41.1%,CN(C(=O)CNC(=O)/C=C/c1cccc(Cl)c1)C1CCS(=O)(=O)CC1
2,-3.03% (inactive),CN(C(=O)COC(=O)/C=C/c1cccc([N+](=O)[O-])c1)C1CCS(=O)(=O)C1 (stereo not drawn)
3,1.69% (inactive),CN(C(=O)CNC(=O)/C=C/c1cccc(Cl)c1)C1CCS(=O)(=O)C1 (stereo not drawn)
